The text below walks through data of patent US8663690B2, “Method for nanoencapsulation” (William Marsh Rice University, priority 2006, dated 2014).

A short description of this data set: UV-vis spectroscopy estimate of lutein-ester dissolved in ethanol. In kind it is physicochemical. The note with it: ethanol at 60° C., estimated from UV-vis spectroscopy; rest undissolved particles. How it is done: A suspension of lutein-ester (Blue California, Co.) was prepared by dissolving lutein-ester powder in ethanol at 60° C. under stirring. It is estimated from UV-vis spectroscopy that 20.0 wt % lutein-ester dissolves in ethanol at 60° C., and the rest are in the form of undissolved nanoparticles, mesoparticles, and microparticles. A solution of gum arabic (Sigma) was prepared by dissolving gum arabic in deionized water (18.2 Mega-Ohm·cm) at 60° C. under stirring until the gum arabic was completely dissolved and a clear solution was obtained.

For the substance lutein-ester, the “fraction of lutein-ester that dissolves in ethanol” value is recorded as 20.0 wt %.
